molecular target: T1, His6-PDK1(Δ1-50) (Homo sapiens, UniProt O15530); experiment: Inhibition of PDK1 (IC50), 384-well flashplate kinase assay; type: biochemical; conditions: 4 μM ATP, 400 nM PDKtide, first part of Table 1 (compounds 1-31)
T1 construct: His6 (N)
T1 sequence (O15530 51-556): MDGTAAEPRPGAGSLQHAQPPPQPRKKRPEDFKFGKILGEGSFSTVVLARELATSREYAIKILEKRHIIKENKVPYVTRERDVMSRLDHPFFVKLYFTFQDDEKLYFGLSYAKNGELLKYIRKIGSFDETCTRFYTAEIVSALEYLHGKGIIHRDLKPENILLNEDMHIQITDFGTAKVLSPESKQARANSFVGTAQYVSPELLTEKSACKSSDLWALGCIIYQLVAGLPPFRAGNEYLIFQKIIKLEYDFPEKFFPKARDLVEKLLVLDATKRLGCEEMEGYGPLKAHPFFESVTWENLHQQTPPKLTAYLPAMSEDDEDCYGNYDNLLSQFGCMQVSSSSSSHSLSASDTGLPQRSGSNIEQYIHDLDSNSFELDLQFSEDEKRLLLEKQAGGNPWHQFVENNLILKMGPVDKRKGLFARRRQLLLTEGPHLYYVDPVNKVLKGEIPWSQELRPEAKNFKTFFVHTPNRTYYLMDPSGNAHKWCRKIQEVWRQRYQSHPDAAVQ
Method: Inhibition of PDK1 (IC50)
The kinase assay can be carried out as a 384-well flashplate assay. 3.4 nM His6-PDK1(Δ1-50), 400 nM PDKtide (biotin-bA-bA-[…]) and 4 μM ATP (with 0.2 μCi of 33P-ATP/well) are incubated at […] for 60 min in a total volume of 50 μl (50 mM TRIS, 10 mM Mg acetate, 0.1% of mercaptoethanol, 0.02% of Brij35, 0.1% of BSA, pH 7.5) with or without test substance (5-10 concentrations). The reaction is stopped using 25 μl of 200 mM EDTA solution, filtered with suction after 30 min at room temperature, and the wells are washed with 3 times 100 μl of 0.9% NaCl solution. The nonspecific content of the kinase reaction (blank) is determined using 100 nM staurosporine. Radioactivity is measured using a Topcount scintillation counter (PerkinElmer, USA). IC50 values are calculated using the RS1 computer program.

SMILES | IC50 [nM]
CN1CCC(N(C)c2ncc3c(n2)Nc2ccccc2NC3=O)CC1 [Compound 1] | 2300
Cc1ccc2c(c1)Nc1nc(N(C)C3CCN(C)CC3)ncc1C(=O)N2 [Compound 2, 7-Methyl-3-[methyl(1-methylpiperidin-4-yl)amino]-5,10-dihydro-2,4,5,10-tetraazadibenzo[a,d]cyclohepten-11-one] | 2400
Cc1cc2c(cc1C)Nc1nc(N(C)C3CCN(C)CC3)ncc1C(=O)N2 [Compound 3, 7,8-Dimethyl-3-[methyl(1-methylpiperidin-4-yl)amino]-5,10-dihydro-2,4,5,10-tetraazadibenzo[a,d]cyclohepten-11-one] | 1000
CN1CCC(N(C)c2ncc3c(n2)Nc2ccc(Cl)cc2NC3=O)CC1 [Compound 4, 8-Chloro-3-[methyl(1-methylpiperidin-4-yl)amino]-5,10-dihydro-2,4,5,10-tetraazadibenzo[a,d]cyclohepten-11-one] | 1400
COc1ccc2c(c1)NC(=O)c1cnc(N(C)C3CCN(C)CC3)nc1N2 [Compound 5, S-Methoxy-3-[methyl(1-methylpiperidin-4-yl)amino]-5,10-dihydro-2,4,5,10-tetraazadibenzo[a,d]cyclohepten-11-one] | 800
Cc1ccc2c(c1)NC(=O)c1cnc(N(C)C3CCN(C)CC3)nc1N2 [Compound 6, 8-Methyl-3-[methyl(1-methylpiperidin-4-yl)amino]-5,10-dihydro-2,4,5,10-tetraazadibenzo[a,d]cyclohepten-11-one] | 1100
COc1ccc2c(c1)NC(=O)c1cnc(NC3CCN(C)CC3)nc1N2 [Compound 7, 8-Methoxy-3-(1-methylpiperidin-4-ylamino)-5,10-dihydro-2,4,5,10-tetraazadibenzo[a,d]cyclohepten-11-one] | 3100
Cc1cc2c(cc1C)Nc1nc(NC3CCN(C)CC3)ncc1C(=O)N2 [Compound 8, 7,8-Dimethyl-3-(1-methylpiperidin-4-ylamino)-5,10-dihydro-2,4,5,10-tetraazadibenzo[a,d]cyclohepten-11-one] | 2500
Cc1ccc2c(c1)Nc1nc(NC3CCN(C)CC3)ncc1C(=O)N2 [Compound 9, 7-Methyl-3-(1-methylpiperidin-4-ylamino)-5,10-dihydro-2,4,56,10-tetraazadibenzo[a,d]cyclohepten-11-one] | 4800
CN1CCC(N(C)c2ncc3c(n2)Nc2cc(Cl)ccc2NC3=O)CC1 [Compound 10] | 1700
CN1CCC(Nc2ncc3c(n2)Nc2cc(C(F)(F)F)ccc2NC3=O)CC1 [Compound 11] | 3900
Cc1ccc2c(c1)NC(=O)c1cnc(NC3CCN(C)CC3)nc1N2 [Compound 12] | 900
CN1CCC(N(C)c2ncc3c(n2)Nc2ccc(Br)cc2NC3=O)CC1 [Compound 13] | 1700
Cc1ccc2c(c1)NC(=O)c1cnc(N(C)C3CCN(C)CC3)nc1N2 [Compound 14] | 400
CCOc1ccc2c(c1)NC(=O)c1cnc(N(C)C3CCN(C)CC3)nc1N2 [Compound 15] | 900
CN1CCC(N(C)c2ncc3c(n2)Nc2ccc(C(C)(C)C)cc2NC3=O)CC1 [Compound 16] | 400
CN1CCC(N(C)c2ncc3c(n2)Nc2ccc(C(F)(F)F)cc2NC3=O)CC1 [Compound 17] | 1600
CN1CCC(Nc2ncc3c(n2)Nc2ccc(C(C)(C)C)cc2NC3=O)CC1 [Compound 18] | 700
Cc1ccc2c(c1)NC(=O)c1cnc(NC3CCN(C)CC3)nc1N2 [Compound 19] | 600
CCN(c1ncc2c(n1)Nc1ccc(C)cc1NC2=O)C1CCN(C)CC1 [Compound 20] | 2800
CCOc1ccc2c(c1)NC(=O)c1cnc(NC3CCN(C)CC3)nc1N2 [Compound 21] | 1000
Cc1ccc2c(c1C)Nc1nc(N(C)C3CCN(C)CC3)ncc1C(=O)N2 [Compound 22] | 2600
Cc1ccc2c(c1C)Nc1nc(NC3CCN(C)CC3)ncc1C(=O)N2 [Compound 23] | 3600
CN1CCC(N(C)c2ncc3c(n2)Nc2ccc(-c4ccsc4)cc2NC3=O)CC1 [Compound 25] | 1000
Cc1ccc2c(c1)NC(=O)c1cnc(N(C(C)C)C3CCN(C)CC3)nc1N2 [Compound 26] | 6200
Cc1noc(C)c1-c1ccc2c(c1)NC(=O)c1cnc(N(C)C3CCN(C)CC3)nc1N2 [Compound 29] | 3200

same assay, conditions: 4 μM ATP, 400 nM PDKtide, second part of Table 1 (compounds 32-124)

SMILES | IC50 [nM]
Cc1cc(C)c2c(c1)NC(=O)c1cnc(N(C)C3CCN(C)CC3)nc1N2 [Compound 33] | 1300
CN1CCC(N(C)c2ncc3c(n2)Nc2cc(Cl)c(Cl)cc2NC3=O)CC1 [Compound 35] | 3700
CN1CCC(Nc2ncc3c(n2)Nc2cc(Cl)c(Cl)cc2NC3=O)CC1 [Compound 36] | 1200
CN1CCC(Nc2ncc3c(n2)Nc2ccc(N(C)C)cc2NC3=O)CC1 [Compound 37] | 190
CCN1CCC(Nc2ncc3c(n2)Nc2cc(Cl)c(Cl)cc2NC3=O)CC1 [Compound 39] | 4900
CCN1CCC(Nc2ncc3c(n2)Nc2ccc(C(C)(C)C)cc2NC3=O)CC1 [Compound 40] | 1400
CCN1CCC(Nc2ncc3c(n2)Nc2c(C)cc(C)cc2NC3=O)CC1 [Compound 42] | 4800
CCN1CCC(Nc2ncc3c(n2)Nc2ccc(C)cc2NC3=O)CC1 [Compound 45] | 1500
Cc1cccc2c1Nc1nc(NC3CCN(C)CC3)ncc1C(=O)N2 [Compound 46] | 2400
CCN(c1ncc2c(n1)Nc1ccc(C(C)C)cc1NC2=O)C1CCN(C)CC1 [Compound 48] | 3000
CC(C)N1CCC(Nc2ncc3c(n2)Nc2ccc(C(C)(C)C)cc2NC3=O)CC1 [Compound 51] | 2700
CC(C)N1CCC(Nc2ncc3c(n2)Nc2ccc(F)cc2NC3=O)CC1 [Compound 52] | 3600
CCN1CCC(Nc2ncc3c(n2)Nc2c(C)cccc2NC3=O)CC1 [Compound 54] | 7100
CC(C)N1CCC(Nc2ncc3c(n2)Nc2ccc(C#N)cc2NC3=O)CC1 [Compound 58] | 7100
CCN(c1ncc2c(n1)Nc1ccc(F)cc1NC2=O)C1CCN(C)CC1 [Compound 59] | 2400
CN1CCC(N(C)c2ncc3c(n2)Nc2ccc(-c4cccs4)cc2NC3=O)CC1 [Compound 63] | 1000
CCOc1ccc2c(c1)NC(=O)c1cnc(N(C)C3CCN(C)CC3)nc1N2 [Compound 64] | 430
CCOc1ccc2c(c1)NC(=O)c1cnc(NC3CCN(C)CC3)nc1N2 [Compound 65] | 520
CN1CCC(N(C)c2ncc3c(n2)Nc2ccc(C(F)(F)F)cc2NC3=O)CC1 [Compound 67] | 1300
CN1CCC(N(C)c2ncc3c(n2)Nc2cc(N)ccc2NC3=O)CC1 [Compound 68] | 510
CN1CCC(N(C)c2ncc3c(n2)Nc2cc(NC(=O)NC4CCCC4)ccc2NC3=O)CC1 [Compound 69] | 650

Next, values leading:

IC50 [nM] | SMILES
640 | Cc1cc2c(cc1C)Nc1nc(N(C)C3CCN(C)CC3)ncc1C(=O)N2 [Compound 32]
3700 | Cc1cc(C)c2c(c1)NC(=O)c1cnc(NC3CCN(C)CC3)nc1N2 [Compound 34]
600 | CN1CCC(N(C)c2ncc3c(n2)Nc2ccc(C#N)cc2NC3=O)CC1 [Compound 38]
6300 | CCN1CCC(Nc2ncc3c(n2)Nc2c(ccc(C)c2C)NC3=O)CC1 [Compound 41]
2000 | CCOc1ccc2c(c1)NC(=O)c1cnc(NC3CCN(CC)CC3)nc1N2 [Compound 43]
920 | CCN1CCC(Nc2ncc3c(n2)Nc2ccc(C(C)C)cc2NC3=O)CC1 [Compound 44]
1500 | CCN1CCC(Nc2ncc3c(n2)Nc2cc(C)c(C)cc2NC3=O)CC1 [Compound 47]
5100 | CCOc1ccc2c(c1)NC(=O)c1cnc(NC3CCN(C(C)C)CC3)nc1N2 [Compound 49]
1200 | CC(C)c1ccc2c(c1)NC(=O)c1cnc(NC3CCN(C(C)C)CC3)nc1N2 [Compound 50]
2400 | Cc1ccc2c(c1)NC(=O)c1cnc(NC3CCN(C(C)C)CC3)nc1N2 [Compound 53]
2300 | CCN1CCC(Nc2ncc3c(n2)Nc2ccc(C#N)cc2NC3=O)CC1 [Compound 55]
1500 | CN1CCC(Nc2ncc3c(n2)Nc2ccc(C#N)cc2NC3=O)CC1 [Compound 56]
2000 | Cc1cc2c(cc1C)Nc1nc(NC3CCN(C(C)C)CC3)ncc1C(=O)N2 [Compound 57]
2900 | CCN1CCC(Nc2ncc3c(n2)Nc2ccc(C(F)(F)F)cc2NC3=O)CC1 [Compound 60]
6500 | CC(C)N1CCC(Nc2ncc3c(n2)Nc2ccc(C(F)(F)F)cc2NC3=O)CC1 [Compound 61]
1800 | CN1CCC(Nc2ncc3c(n2)Nc2ccc(C(F)(F)F)cc2NC3=O)CC1 [Compound 62]
3400 | Cc1ccc2c(c1C)Nc1nc(NC3CCN(C)CC3)ncc1C(=O)N2 [Compound 66]

— US7943608B2, “Diazepinoes” (Merck Patent GmbH, priority 2005, dated 2011)
